Among the data in publication PMC12040169 (PLOS Biology, 2025) are viability values, retold here.

The series is described as follows: in vitro. To be noted: human, hela cells, % viability.
A word on the viability: it is a read-out of living cells in per cent, often relative to untreated cells. For the molecule `CCOc1ccc(-c2cn(S(=O)(=O)c3cccc4nsnc34)nc2N)cc1` [CBK267883], the viability at 28.5 h, 10 µM was found to be 102%. In the case of `CN1CCN(C2=NC(=O)CC(C(=O)Nc3ccccc3)N2)CC1` (centres unmarked) [CBK267884] it was 97.1%. The value for `O=C(O)CCc1ccc(-c2cccs2)n1CCOc1ccccc1Cl` [CBK267885] was 89%. In the case of `Cc1ccc(N(C(C)C(=O)Nc2ccccc2-c2ccccc2)S(C)(=O)=O)cc1` (centres unmarked) [CBK267889] it was 105%; in that of `Cc1cc(C)cc(OCc2nnc(SCC(=O)Nc3cc(C(F)(F)F)ccc3Cl)o2)c1` [CBK267890], 94.6%. With `O=C(Cn1ncc2ccccc2c1=O)NNC(=S)NC1CC2CCC1C2` (centres unmarked) [CBK267892], the viability at 28.5 h, 10 µM worked out at 106%. `CN1CCN(c2ccccc2NC(=O)c2cccc3c(Br)cccc23)CC1` [CBK267894]: the viability at 28.5 h, 10 µM is 92.9%. In the case of `CCn1cc(C(=O)O)c(=O)c2cnc(N3CCN(C(=S)Nc4ccc5c(c4)OCCO5)CC3)nc21` [CBK267895] it was 95.8%; in that of `O=C(NCc1ccccc1)c1ccc(NC(=O)c2cc(-n3cnnc3)ccc2Cl)cc1` [CBK267896], 99.2%; in that of `N#C/C(=C\c1cn(CCC(N)=O)c2ccccc12)Sc1nc2ccccc2s1` [CBK267897], 103%. For `O=C(CSc1nnnn1C1CC2CCC1C2)Nc1ccnc2ccccc12` (centres unmarked) [CBK267901], the viability at 28.5 h, 10 µM worked out at 89.4%. In the case of `C/C(N)=C(/C#N)C(NC(=O)C1CCCCC1)(C(F)(F)F)C(F)(F)F` [CBK267902] it was 91.1%; in that of `O=C1c2ccccc2S(=O)(=O)N1CC(O)Cn1ccc2ccccc21` (centres unmarked) [CBK267905], 97.6%; in that of `COc1cccc(CNc2ccc(S(N)(=O)=O)cc2)c1OCc1ccccc1F` [CBK267906], 108%. The value for `COc1cc(S(=O)(=O)NC2CC(C)(C)NC(C)(C)C2)ccc1Br` [CBK267908] was 87.4%; that for `CN1CCN(c2ccccc2NC(=S)NC(=O)c2ccco2)CC1` [CBK267909] was 85.2%; that for `Cc1nnc(NCCN2CCOCC2)nc1O` [CBK267912] was 98.5%. The value for `CC(CCc1ccccc1)NC(=O)CCC(=O)O` (centres unmarked) [CBK267918] was 86.6%; that for `CC(C)NS(=O)(=O)c1ccc(OCC(=O)Nc2ccc3c(c2)OCO3)c(Cl)c1` [CBK267919] was 92.5%.

For `CC(C)NS(=O)(=O)c1ccc(NC(=O)COc2ccc3ccccc3c2Br)cc1` [CBK267920], the viability at 28.5 h, 10 µM worked out at 94.3%. The value for `Cc1ccc(OCCSc2nnc3[nH]c4ccccc4n23)cc1` [CBK267922] was 96.2%. The value for `Cc1cc(Cn2ccc(C(F)(F)F)n2)c(C)c(-c2c(C#N)c(N)nc3c2CCCCC3)c1` [CBK267928] was 104%.

As for `CS(=O)(=O)N(CC(=O)Nc1ccccc1C(=O)N1CCOCC1)c1ccc(F)c(Cl)c1` [CBK267931], the viability at 28.5 h, 10 µM stood at 98.1%. In the case of `Cc1[nH]c2ccccc2c1C(=O)CSc1nc2scc(-c3ccco3)c2c(=O)n1-c1ccccc1` [CBK267933] it was 93.3%; in that of `CS(=O)(=O)N1CCN(c2ccc(NC(=O)CSc3nc(-c4ccccc4)cs3)cc2)CC1` [CBK267934], 91.2%; in that of `CC(=O)Nc1ccc(S(=O)(=O)NC2(C(F)(F)F)C(=O)Nc3c2c(=O)[nH]c(=O)n3CCc2ccccc2)cc1` (centres unmarked) [CBK267937], 104%. As to `CN1CCN(c2ccccc2NC(=O)CSc2ccc(Cl)cc2)CC1` [CBK267941], the viability at 28.5 h, 10 µM came to 98.9%.

`Nn1c(SCCCCSc2nnc(C(F)(F)F)n2N)nnc1C(F)(F)F` [CBK267946]: the viability at 28.5 h, 10 µM was 98.8%.

Turning to `COc1ccc(-c2cc3ccc(OC(C)C(=O)O)cc3oc2=O)cc1` (centres unmarked) [CBK267947], the viability at 28.5 h, 10 µM came out at 101%. In the case of `Cc1ccccc1NS(=O)(=O)c1ccc(OCC(=O)N2CCN(C)CC2)cc1` [CBK267948] it was 88.4%; in that of `Cc1ccc(C)c(N2CCN(CCCNC(=S)Nc3ccc(Cl)cc3Cl)CC2)c1` [CBK267951], 99.6%; in that of `O=C(Nc1nc2n(n1)C(c1ccc(F)cc1)CC(c1ccccc1)N2)c1cccnc1` (centres unmarked) [CBK267953], 88.9%.

`O=C(O)CCc1ccc(-c2ccccc2)n1CC1CCCO1` (centres unmarked) [CBK267955]: the viability at 28.5 h, 10 µM came to 102%.

On to `C=CCn1c(SCC(=O)N2CCN(c3ccccc3)CC2)nnc1-c1ccc(N)cc1` [CBK267956], for which the viability at 28.5 h, 10 µM worked out at 99.8%.

On to `O=C(c1ccc(NS(=O)(=O)c2ccccc2)cc1)N1CCN(Cc2ccc3c(c2)OCO3)CC1` [CBK267957], for which the viability at 28.5 h, 10 µM turned out to be 102%. The value for `COc1ccc(S(=O)(=O)N2CCC(C(=O)Nc3ccccc3SC)CC2)cc1C` [CBK267960] was 96.2%. The value for `Cc1cccc(OCCCC(=O)Nc2ccc(S(N)(=O)=O)cc2)c1C` [CBK267963] was 90.8%. In the case of `COCCN1CCn2c(nc3cc(NC(=O)c4cccc([N+](=O)[O-])c4)ccc32)C1` [CBK267965] it was 98.9%. Take `N#C/C(=C\c1cn(CCC(N)=O)c2ccccc12)c1nc2ccccc2[nH]1` [CBK267966]: the viability at 28.5 h, 10 µM came out at 104%. The value for `N#CCCn1cc(C(=O)Oc2ccc(-c3ccccc3)cc2)c(-c2cccc([N+](=O)[O-])c2)n1` [CBK267968] was 105%. With `CCOC(=O)c1c(NC(=O)CSc2nncn2C)sc(C)c1C` [CBK267970], the viability at 28.5 h, 10 µM came out at 89.8%. The value for `CN(C)S(=O)(=O)N(CC(=O)NCc1ccco1)c1ccccc1` [CBK267971] was 97.3%; that for `O=C(O)C1CCCCC1C(=O)NCCc1ccc(Cl)cc1` (centres unmarked) [CBK267972] was 98.5%; that for `CCCc1oc(C(=O)O)cc1CN1CCCCC1` [CBK267973C] was 99%. The value for `CN1CCN(Cc2c(O)ccc3cc(-c4ccc(F)cc4)c(=O)oc23)CC1` [CBK267976] was 111%; that for `Oc1ccc(CN2CCN(c3ccc(F)cc3)CC2)c2cccnc12` [CBK267985] was 117%; that for `Cn1c2ccccc2c2nnc(SCCc3ccccc3)nc21` [CBK267986] was 109%.

`COCCN1CCn2c(nc3cc(NC(=O)c4ccco4)ccc32)C1` [CBK267990]: the viability at 28.5 h, 10 µM amounted to 88.2%.

Take `S=C(Nc1ccccc1)N(Cc1ccccc1)Cc1ccncc1` [CBK267991]: the viability at 28.5 h, 10 µM was 96.8%. For `Cc1cccc(C(C)C)c1NC(=O)C1Cc2ccccc2CN1S(=O)(=O)c1ccc(F)cc1` (centres unmarked) [CBK267992], the viability at 28.5 h, 10 µM is 101%. The value for `COc1cccc(/C=C(/C#N)c2ccc(F)cc2)c1OCc1cccc(C(=O)O)c1` [CBK267993] was 102%; that for `CN(C)S(=O)(=O)N(CC(=O)N1CCN(Cc2ccc3c(c2)OCO3)CC1)c1ccccc1` [CBK267994] was 102%; that for `COc1ccc(S(=O)(=O)N(CC(=O)O)C2CCCCC2)cc1Cl` [CBK267997] was 81.5%.

Consider `Cc1cccc(C)c1N1CCN(CCn2c(=S)[nH]c3ccccc3c2=O)CC1` [CBK267998], for which the viability at 28.5 h, 10 µM came to 89.9%. On to `Nc1ccc(S(=O)(=O)NC2(C(F)(F)F)NC(=O)N(c3ccccc3Cl)C2=O)cc1` (centres unmarked) [CBK268003], for which the viability at 28.5 h, 10 µM amounted to 107%. The value for `COc1cccc(C(=O)Nc2cc3c(cc2C(O)c2ccccc2Cl)OCCO3)c1` (centres unmarked) [CBK268004] was 99.3%; that for `O=C(Nc1cccc2cccnc12)c1ccc([N+](=O)[O-])o1` [CBK268007] was 61.1%. With `O=C(CSc1nnc(Cc2ccccc2)o1)N1c2ccccc2Sc2ccccc21` [CBK268008], the viability at 28.5 h, 10 µM stood at 96.4%. The value for `CCOc1c(Br)cc(CNc2nc[nH]n2)cc1OC` [CBK268009] was 104%; that for `Cc1ccc(Cl)c(N2CCN(CCCn3c(=S)[nH]c4ccccc4c3=O)CC2)c1` [CBK268011] was 90%; that for `Cc1cc(C)cc(OCc2nnc(SCC(=O)N3CCN(c4ccccc4)CC3)o2)c1` [CBK268012] was 96.7%. In the case of `O=S(=O)(NCCSc1nnnn1-c1ccccc1)c1cccs1` [CBK268013], the viability at 28.5 h, 10 µM worked out at 112%. In the case of `Nc1cc(O)nc(SCC(=O)N2CCN(C(c3ccccc3)c3ccccc3)CC2)n1` [CBK268014] it was 94%. In the case of `O=C(O)CN(c1ccc2c(c1)OCCO2)S(=O)(=O)c1ccccc1` [CBK268017] it was 115%. The value for `O=C(CSc1nc(-c2cccc([N+](=O)[O-])c2)cs1)NCC1CCCO1` (centres unmarked) [CBK268020] was 92.8%; that for `CCn1c(SCC(=O)Nc2ccc(OC)c(Cl)c2)nnc1-c1ccccc1O` [CBK268021] was 101%; that for `O=C(NCCN1CCOCC1)c1cc(-n2cnnc2)ccc1Cl` [CBK268023] was 97.1%. As to `CC(=O)Nc1c(O)nc(SCC(=O)Nc2ccccc2C(N)=O)[nH]c1=O` [CBK268031], the viability at 28.5 h, 10 µM came to 97.8%. The value for `Cc1ccc(OCCCC(=O)Nc2ccc(C(N)=O)cc2)c(C)c1` [CBK268032] was 93.8%.

As for `CC(c1ccccc1)N1CCn2c(nc3cc(NC(=O)COc4ccccc4)ccc32)C1` (centres unmarked) [CBK268033], the viability at 28.5 h, 10 µM is 105%. As to `O=C(CC1Nc2cccc3cccc(c23)NC1=O)Nc1ccccc1` (centres unmarked) [CBK268035], the viability at 28.5 h, 10 µM is 87.2%. In the case of `Cc1nn2c(CN(C(=O)COc3ccccc3)c3ccccc3)nnc2c2ccccc12` [CBK268036] it was 83.4%; in that of `O=C(OCc1ccc(Sc2ccc([N+](=O)[O-])cc2Cl)cc1)c1cnccn1` [CBK268037], 93.4%; in that of `O=C(NCCN1CCN(Cc2ccccc2Cl)CC1)Nc1ccccc1` [CBK268039], 93.4%. With `CC1CCN(S(=O)(=O)c2ccc(NC(=O)CCn3c(=O)oc4ccccc43)cc2)CC1` [CBK268040], the viability at 28.5 h, 10 µM was 97.1%.

Turning to `CCOc1ccccc1CNCc1ccccn1` [CBK268041C], the viability at 28.5 h, 10 µM turned out to be 103%. In the case of `CC(=O)C1=C(C)N(CC2CCCO2)C(=O)C1(NC(=O)c1ccc(C(C)(C)C)cc1)C(F)(F)F` (centres unmarked) [CBK268043] it was 93.2%.
